Measured values from patent publication US20230014181A1, “CULTURE SYSTEM AND METHODS FOR IMPROVED MODELING OF NEUROLOGICAL CONDITIONS” (Genentech, Inc., priority 2021, published 2023).
Counter-ions that a name gives are not always drawn. Like-named read-outs stand apart in the source and are kept apart here.

Test system: human iPSC neurons, astrocytes and microglia treated with 5 μM sAβ42s
Experiment: Focused small molecule screen, triple culture (neuron, astrocyte, microglia), rescue from sAβ42s toxicity
Type: cell-based
Conditions: for percent rescue from sAβ42s toxicity at 50 µM / percent rescue from sAβ42s toxicity at 12.5 µM / percent rescue from sAβ42s toxicity at 0.78 µM / percent rescue from sAβ42s toxicity at 3.13 µM: Homo sapiens, iPSC
Procedure: FIGS. 11A-11D show synapse % rescue versus MAP2% rescue (FIGS. 11A-11B) and beta III tubulin % rescue versus MAP2% rescue (FIGS. 11C-11D), in neurons and astrocytes (FIGS. 11A and 11C) or neurons, astrocytes, and microglia (FIGS. 11B and 11D) treated with 5 μM sAβ42s and small molecules from a focused screen of known neuroprotective agents at multiple concentrations (50 μM, 25 μM, 12.5 μM and 6.25 μM (double culture), 50 μM, 12.5 μM, 3.1 μM and 0.78 μM (triple culture). Small molecules that prevented toxicity in dendrites (MAP2), synapses (Synapsin 1/2), cell count (CUX2), or axons ([…]) at or above 30% were considered hits (red dotted line).
Frozen cells were thawed and immediately seeded at a density of 8,000 cells/well of a 384-well plate onto 8-week old neuron-astrocyte co-culture in Microglia media (BrainPhys™ neuronal media (Stem Cell Technologies) supplemented with 1× B27 with vitamin A, 1×N2 Plus Media Supplement (R&D Systems), 20 ng/mL BDNF, 20 ng/mL GDNF, 1 mM creatine, 200 nM L-ascorbic acid, 1 μg/mL mouse laminin, 0.5 mM GlutaMAX™ (Thermofisher), 0.5× penicillin-streptomycin, 1× normocin, 5 ng/mL TGF-β, 100 ng/mL human IL-34, 1.5 μg/mL cholesterol, 1 ng/mL gondoic acid, 100 ng/mL oleic acid, 460 μM thioglycerol, 1× insulin-transferrin-selenium, 25 ng/mL rhM-CSF, 5.4 μg/mL human insulin solution).
In double (neuron, astrocyte) and triple (neuron, astrocyte, microglia) cultures, each small molecule listed in Table 1 was tested in the AD model paradigm at up to four concentrations. Molecules that characterized ≥30% rescue in any of the four measurements of dendrites area (MAP2), synapses count (synapsin 1/2), or cell count (CUX2), or axon area (Beta III Tubulin; “BT3”)) were classified as hits (FIGS. 11A-11D, Table 2, and Table 3).

[1] = 50.00 μM compound, read-out: % B3T rescue
[2] = 50.00 μM compound, read-out: % MAP2 rescue
[3] = 50.00 μM compound, read-out: % Synapse rescue
[4] = 12.50 μM compound, read-out: % B3T rescue
[5] = 12.50 μM compound, read-out: % MAP2 rescue
[6] = 12.50 μM compound, read-out: % Synapse rescue
[7] = 0.78 μM compound, read-out: % B3T rescue
[8] = 0.78 μM compound, read-out: % MAP2 rescue
[9] = 0.78 μM compound, read-out: % Synapse rescue
[10] = 3.13 μM compound, read-out: % B3T rescue
[11] = 3.13 μM compound, read-out: % MAP2 rescue
[12] = 3.13 μM compound, read-out: % Synapse rescue

| Molecule | % B3T rescue (50.00 μM compound) [%] | % MAP2 rescue (50.00 μM compound) [%] | % Synapse rescue (50.00 μM compound) [%] | % B3T rescue (3.13 μM compound) [%] | % MAP2 rescue (3.13 μM compound) [%] | % Synapse rescue (3.13 μM compound) [%] | % B3T rescue (12.50 μM compound) [%] | % MAP2 rescue (12.50 μM compound) [%] | % Synapse rescue (12.50 μM compound) [%] | also measured |
| --- | --- | --- | --- | --- | --- | --- | --- | --- | --- | --- |
| COc1ccc(S(=O)(=O)NCCCC(=O)Nc2ccc(Sc3ccc(N)cc3)cc2)cc1 [BI-6C9] | 65 | 58 | 55 |  |  |  |  |  |  |  |
| Cc1c[nH]c(-c2cnc(NCCNc3ccc(C#N)cn3)nc2-c2ccc(Cl)cc2Cl)n1 [CHIR 99021 trihydrochloride] |  |  |  |  |  |  |  |  |  | percent rescue from sAβ42s toxicity at 50 µM [1]: 66%; percent rescue from sAβ42s toxicity at 50 µM [2]: 58%; percent rescue from sAβ42s toxicity at 50 µM [3]: 46% |
| Oc1cc2c(cc1O)CN(C(=S)NCCc1ccc(Cl)cc1)CCC2 [Capsazepine] |  |  |  |  |  |  |  |  |  | percent rescue from sAβ42s toxicity at 12.5 µM [4]: 50%; percent rescue from sAβ42s toxicity at 12.5 µM [5]: 44%; percent rescue from sAβ42s toxicity at 12.5 µM [6]: 44% |
| Oc1cc(O)c2c(c1)O[C@H](c1ccc(O)c(O)c1)[C@H](O)C2 [Epicatechin] |  |  |  |  |  |  |  |  |  | percent rescue from sAβ42s toxicity at 50 µM [1]: 30%; percent rescue from sAβ42s toxicity at 50 µM [2]: 28%; percent rescue from sAβ42s toxicity at 50 µM [3]: 20% |
| C=CC[C@@H]1/C=C(\C)C[C@H](C)C[C@H](OC)[C@H]2O[C@@](O)(C(=O)C(=O)N3CCCC[C@H]3C(=O)O[C@H](/C(C)=C/[C@@H]3CC[C@@H](O)[C@H](OC)C3)[C@H](C)[C@@H](O)CC1=O)[C@H](C)C[C@@H]2OC [FK 506] |  |  |  |  |  |  |  |  |  | percent rescue from sAβ42s toxicity at 12.5 µM [4]: 52%; percent rescue from sAβ42s toxicity at 12.5 µM [5]: 34%; percent rescue from sAβ42s toxicity at 12.5 µM [6]: 34% |
| C=C(c1ccc(C(=O)O)c(F)c1)c1cc2c(cc1C)C(C)(C)CCC2(C)C [Fluorobexarotene] |  |  |  | 50 | 43 | 34 | 33 | 40 | 33 |  |
| C/C=C1\C(=O)C[C@H]2[C@@H]3CCC4=CC(=O)CC[C@]4(C)[C@H]3CC[C@]12C [Guggulsterone] |  |  |  |  |  |  |  |  |  | percent rescue from sAβ42s toxicity at 50 µM [1]: 36%; percent rescue from sAβ42s toxicity at 50 µM [2]: 19%; percent rescue from sAβ42s toxicity at 50 µM [3]: 17% |
| O=C(COc1ccc(Cl)cc1)NC1CCC(NC(=O)COc2ccc(Cl)cc2)CC1 (stereo not drawn) [ISR Inhibitor, ISRIB] | 22 | 31 | 21 |  |  |  |  |  |  |  |
| Cc1cc(C(=O)CN2CCCC2)c(C)n1-c1ccc(F)cc1 [IU1] |  |  |  |  |  |  | 41 | 32 | 23 |  |
| O=C1Nc2ccccc2/C1=C1/Nc2ccccc2/C1=N\O [Indinibin-3′-monoxime] | 49 | 23 | 34 | 31 | 6 | 9 | 74 | 37 | 44 |  |
| CCCn1c(C)c(C(=O)c2cccc3ccccc23)c2ccccc21 [JWH 015] | 42 | 38 | 26 |  |  |  | 60 | 50 | 43 |  |
| CCOC(=O)c1ccc(N(C)c2csc(-c3ccccc3)n2)cc1 [Neuropathiazol] | 35 | 27 | 28 |  |  |  | 35 | 44 | 42 |  |
| Cn1cnc2c(NCc3ccccc3)nc(NCCO)nc21 [Olomoucine] |  |  |  |  |  |  |  |  |  | percent rescue from sAβ42s toxicity at 50 µM [1]: 69%; percent rescue from sAβ42s toxicity at 50 µM [2]: -8%; percent rescue from sAβ42s toxicity at 50 µM [3]: -15% |
| OC(CNc1ccccc1)Cn1c2ccc(Br)cc2c2cc(Br)ccc21 (stereo not drawn) [P7C3] | 43 | −8 | 2 | 30 | 2 | 3 |  |  |  |  |
| O=C(NOC[C@H](O)CO)c1ccc(F)c(F)c1Nc1ccc(I)cc1F [PD0325901] |  |  |  |  |  |  |  |  |  | percent rescue from sAβ42s toxicity at 0.78 µM [7]: 48%; percent rescue from sAβ42s toxicity at 0.78 µM [8]: 19%; percent rescue from sAβ42s toxicity at 0.78 µM [9]: 15%; percent rescue from sAβ42s toxicity at 3.13 µM [10]: 52%; percent rescue from sAβ42s toxicity at 3.13 µM [11]: 23%; percent rescue from sAβ42s toxicity at 3.13 µM [12]: 21%; percent rescue from sAβ42s toxicity at 12.5 µM [4]: 43%; percent rescue from sAβ42s toxicity at 12.5 µM [5]: 8%; percent rescue from sAβ42s toxicity at 12.5 µM [6]: 8%; percent rescue from sAβ42s toxicity at 50 µM [1]: 59%; percent rescue from sAβ42s toxicity at 50 µM [2]: 27%; percent rescue from sAβ42s toxicity at 50 µM [3]: 27% |
| CC(C)[C@H](CO)Nc1nc(Nc2cccc(Cl)c2)c2ncn(C(C)C)c2n1 [Purvalanol A] |  |  |  | 33 | 15 | 24 |  |  |  |  |
| Oc1ccc(C=Cc2cc(O)cc(O)c2)cc1 [Resveratrol] |  |  |  |  |  |  |  |  |  | percent rescue from sAβ42s toxicity at 0.78 µM [7]: 27%; percent rescue from sAβ42s toxicity at 0.78 µM [8]: 33%; percent rescue from sAβ42s toxicity at 0.78 µM [9]: 24%; percent rescue from sAβ42s toxicity at 3.13 µM [10]: 30%; percent rescue from sAβ42s toxicity at 3.13 µM [11]: 33%; percent rescue from sAβ42s toxicity at 3.13 µM [12]: 27%; percent rescue from sAβ42s toxicity at 12.5 µM [4]: 54%; percent rescue from sAβ42s toxicity at 12.5 µM [5]: 57%; percent rescue from sAβ42s toxicity at 12.5 µM [6]: 49%; percent rescue from sAβ42s toxicity at 50 µM [1]: 78%; percent rescue from sAβ42s toxicity at 50 µM [2]: 84%; percent rescue from sAβ42s toxicity at 50 µM [3]: 78% |
| Cn1cc(C2=C(c3ccc(Cl)cc3Cl)C(=O)NC2=O)c2ccccc21 [SB216763] | 46 | −24 | −15 |  |  |  |  |  |  |  |
| CCCCCCCCCCCCCCCCCC(=O)NCCc1ccc(O)c(O)c1 [STEARDA] |  |  |  | 33 | 28 | 24 | 33 | 24 | 21 | % B3T rescue (0.78 μM compound): 27%; % MAP2 rescue (0.78 μM compound): 30%; % Synapse rescue (0.78 μM compound): 24% |
| Cc1[nH]c(/C=C2\C(=O)Nc3ccccc32)c(C)c1CCC(=O)O [SU 6668] | 77 | 80 | 75 | 34 | 31 | 26 |  |  |  |  |
| Cn1sc(=O)n(Cc2ccccc2)c1=O [TDZD-8] | 54 | −29 | −8 |  |  |  |  |  |  |  |
| CC(C)CCC[C@@H](C)[C@H]1CC[C@H]2[C@@H]3CCC4=CC(=NO)CC[C@]4(C)[C@H]3CC[C@]12C [TRO 19622] |  |  |  |  |  |  |  |  |  | percent rescue from sAβ42s toxicity at 3.13 µM [10]: 34%; percent rescue from sAβ42s toxicity at 3.13 µM [11]: -25%; percent rescue from sAβ42s toxicity at 3.13 µM [12]: -10%; percent rescue from sAβ42s toxicity at 12.5 µM [4]: 33%; percent rescue from sAβ42s toxicity at 12.5 µM [5]: -36%; percent rescue from sAβ42s toxicity at 12.5 µM [6]: -13% |
| COc1cc([C@@H]2c3cc4c(cc3[C@@H](O[C@@H]3O[C@@H]5CO[C@@H](c6cccs6)O[C@H]5[C@H](O)[C@H]3O)[C@H]3COC(=O)[C@H]23)OCO4)cc(OC)c1O [Teniposide] |  |  |  |  |  |  |  |  |  | percent rescue from sAβ42s toxicity at 0.78 µM [7]: 35%; percent rescue from sAβ42s toxicity at 0.78 µM [8]: -7%; percent rescue from sAβ42s toxicity at 0.78 µM [9]: 1%; percent rescue from sAβ42s toxicity at 3.13 µM [10]: 42%; percent rescue from sAβ42s toxicity at 3.13 µM [11]: -10%; percent rescue from sAβ42s toxicity at 3.13 µM [12]: 5%; percent rescue from sAβ42s toxicity at 12.5 µM [4]: 50%; percent rescue from sAβ42s toxicity at 12.5 µM [5]: -17%; percent rescue from sAβ42s toxicity at 12.5 µM [6]: 3%; percent rescue from sAβ42s toxicity at 50 µM [1]: 52%; percent rescue from sAβ42s toxicity at 50 µM [2]: -19%; percent rescue from sAβ42s toxicity at 50 µM [3]: 3% |
| CC(/C=C/C(=O)NO)=C\[C@@H](C)C(=O)c1ccc(N(C)C)cc1 [Trichostatin A] | 41 | −13 | 1 |  |  |  | 31 | −18 | 2 |  |
| Cc1c(C)c(NCC(=O)N(C)C2CCN(Cc3ccc(C(N)=O)cc3)CC2)c(C)c(C)c1N [sun11602] | 47 | 14 | 11 | 33 | 10 | 11 | 43 | 19 | 15 |  |
| Lycorine hydrochloride | 79 | 88 | 75 | 77 | 99 | 80 | 83 | 93 | 77 | % B3T rescue (0.78 μM compound): 37%; % MAP2 rescue (0.78 μM compound): 57%; % Synapse rescue (0.78 μM compound): 43% |
